US20250288553A1, “Antimicrobial Compositions and Uses for Treatment of Clostridioides difficile, Mycobacterium tuberculosis, and Enterococcus faecalis Infection” (priority 2022, published 2025)
≈ marks a conversion by molar mass, not a printed value.

Key:
dormant Mtb = details: earlier screen (ref 12); cited from earlier work
active Mtb = details: earlier screen (ref 12); cited from earlier work
Mtb = details: at a concentration of 12.5 μg/mL; cited from earlier work
[1] = tested on: replicating Mtb-lux (Mycobacterium tuberculosis CDC1551 with pMV306hsp+LuxG13); assay type: cell-based
[2] = tested on: dormant Mtb-lux (Mycobacterium tuberculosis CDC1551 with pMV306hsp+LuxG13); assay type: cell-based; details: for R/D (MICR/MICD, Mtb-lux): ratio replicating MIC to dormant MIC
[3] = tested on: Enterococcus faecalis ATCC 29212; assay: MIC against E. faecalis, REMA; details: REMA, visual, 24 h
[4] = tested on: TcdA production in C. difficile NAP1; assay: Toxin analysis: extracellular TcdA of C. difficile NAP1 at sub-MICs, western blot; assay type: cell-based, Clostridioides difficile; details: NAP1 challenged with 0.5×, 0.25×, 0.125× MIC, 48 h, TcdA normalized to total protein
Description: After a 48 h incubation of NAP1 challenged with several dilutions of each compound, extracellular toxin in spent media derived from triplicate cultures was assessed with western blots using a monoclonal antibody against TcdA. Semi-quantitative analysis of toxin levels was performed via densitometry of TcdA band intensity with respect to total protein as measured by the Bradford assay. Semi-quantitative plots are shown below each representative blot. (a) Toxin production in BHIS (NAP1) and BHIS with 5% DMSO (vehicle). (b) Toxin production from cultures challenged with sub-MICs of fidaxomicin, (c) vancomycin, and (d-j) (+)-puupehenone and selected derivatives. Data points represent the means of adjusted toxin levels derived from triplicate cultures, while error bars represent standard deviations. Statistical analysis was performed in GraphPad Prism 8 using unpaired t-tests. *P<0.05; **P<0.01.
To account for changes in biomass, a semi-quantitative analysis of TcdA production was performed by normalizing the target bands from representative western blots to the amount of total protein in each sample.
Toxin analysis. Toxin production was determined by analyzing the amount of extracellular toxin in the cultures from the ASTs described above. At 48 h, total protein of each culture was determined with the Bradford assay using bovine serum albumin (BSA) as a standard.^53 Cultures were then centrifuged at 5,000×g for 5 minutes to clear the supernatants which were separately collected and frozen at −20° C. After thawing at room temperature, cell-free supernatants were mixed 1:1 with 2× Laemmli buffer and incubated in a sand bath at 100° C. for 5 minutes. Twenty microliters of denatured samples were loaded onto 7.5% Tris-glycine gels and electrophoresed at 200 V for 1 h. After electrophoresis, samples were transferred to polyvinylidene difluoride membranes at 4° C. overnight at 30 V. Membranes were incubated in a blocking buffer (20 mM Tris-HCl, 150 mM NaCl, 0.01 mM ethylenediaminetetraacetic acid, 0.1% Tween 20, 1% BSA, [pH 7.5]) for 1 h at room temperature. TcdA was detected with a monoclonal mouse anti-TcdA antibody (PCG4.1, Novus Biologicals) and a rabbit anti-mouse antibody conjugated with alkaline phosphatase. Blots were visualized with a ChemiDoc XRS+ imaging system (Bio-Rad).
Semi-quantitative analysis of TcdA was performed using Image Lab 6.0 software (Bio-Rad). Briefly, after subtracting background noise, peaks corresponding to the target band were selected with the software's Lane Profile tool. The density of each peak generated a value (arbitrary units) that was normalized to the total protein amount of each respective sample. […] These losses of activity prevented us from performing statistical analysis from multiple experiments, as the sub-MICs were not always the same. Since there were no changes to the methodology described, several other reasons could have accounted for decreased activity, such as compound stability, freeze-thaw, and adherence to plastic. Nevertheless, the toxin results were reproducible, irrespective of the exact sub-MICs on different days.

[5] = tested on: Clostridioides difficile NAP1; assay: MIC against C. difficile NAP1, modified broth microdilution; details: for MIC C. difficile: NAP1, modified broth microdilution, 48 h, anaerobic
[6] = tested on: Bacillus subtilis ATCC 23857; assay: MIC against B. subtilis, REMA; details: REMA, visual, 24 h
[7] = tested on: Staphylococcus aureus ATCC 25923; assay: MIC against S. aureus, REMA; details: visual, 24 h
[8] = tested on: M. smegmatis mc^2155 ATCC 700084; assay: MIC against M. smegmatis, REMA; assay type: cell-based, Mycobacterium smegmatis; details: Mycolicibacterium smegmatis, ATCC700084|MC^2155; determined visually by REMA assay, 24-hour incubation
[9] = tested on: Mycobacterium tuberculosis H37Ra ATCC 25177; assay: MIC against Mtb H37Ra, resazurin microtiter assay (REMA); assay type: cell-based; details: Mycobacterium tuberculosis, 336 h, determined visually by REMA assay, 14-day incubation; read-out: MIC Mtb H37Ra
Cytotoxicity assay HepG2 = details: human
[10] = tested on: HepG2 (human liver carcinoma) cell line; assay: Cytotoxicity assay HepG2
[11] = Cytotoxicity assay J774A.1; assay type: cell-based, murine; details: mouse, J774A.1 macrophage-like cells; J774A.1 cells; read-out: Cytotoxicity (IC50) J774
Description: (§1) To evaluate the selectivity of the top six compounds from the Mtb-lux activity screen (Table 2), cytotoxicity for two different mammalian cell lines was determined. The IC50 was calculated for each compound against J774A.1 and HepG2 cell lines. The selectivity index (SI) for both replicating and dormant conditions was then calculated by taking the IC50 and dividing it by the corresponding MIC (SIR=IC50/MICR, SID=IC50/MICD)^40. Consistent with the experience, the J774 macrophage cell line was more sensitive to all compounds tested. […] Based on these observations, this triacetate protected puupehenone represents a promising candidate for further optimization.
(§2) Cytotoxicity assay: Cytotoxicity was assessed using J774A.1 (murine macrophage-like) and HepG2 (human liver carcinoma) cell lines using 2-fold dilution of the compounds as described previously^42, 43. IC50 values were determined using nonlinear regression fitting of the databy GraphPad Prism. The selectivity Index (SI) was calculated as IC50/MIC.

[12] = tested on: J774A.1 (murine macrophage-like) cell line; assay: Cytotoxicity assay J774A.1; assay type: cell-based
Description: as §1, §2

CC1(C)CCC[C@]2(C)C3=CC4=CC(=O)C(=O)C=C4O[C@@]3(C)CC[C@@H]12 [Compound 2, Puupehedione]
MIC in multistress dormancy model of Mtb (dormant Mtb): 15.4 µg/mL | MIC against active Mtb (active Mtb): 87.6 µg/mL (≈ 268 µM)

CC1(C)CCC[C@]2(C)[C@H]3[C@H](C#N)c4cc(O)c(O)cc4O[C@@]3(C)CC[C@@H]12 [Compound 4, 15-α-cyanopuupehenol]
inhibition of Mtb (Mtb): 96%

CC1(C)CCCC2(C)C1CCC(C)(O)C2Cc1ccc(O)cc1 (stereo not shown) [Compound 34]
MICR (Mtb-lux) [1]: 114.3 µg/mL | MICD (Mtb-lux) [2]: 30.9 µg/mL | R/D (MICR/MICD, Mtb-lux) [2]: 3.7 | MIC E. faecalis [3]: 15.8 µg/mL (≈ 49.9 µM) | Effect on TcdA toxin production [4]: decreased the amount of toxin in a similar concentration-dependent manner | MIC C. difficile [5]: 16.0 µg/mL (≈ 50.6 µM) | MIC B. subtilis [6]: 7.9 µg/mL (≈ 25 µM) | MIC S. aureus [7]: 16.9 µg/mL (≈ 53.4 µM)

CC1(C)CCC[C@]2(C)[C@H]3C(C#N)=C4C=C(O)C(=O)C=C4O[C@@]3(C)CC[C@@H]12 [Compound 5, 15-cyanopuupehenone]
inhibition of Mtb (Mtb): 90%

CO[C@@H]1c2cc(OC(C)=O)c(OC(C)=O)cc2O[C@@]2(C)CC[C@H]3C(C)(C)CCC[C@]3(C)[C@@H]12 [Compound 15]
MICR (Mtb-lux) [1]: 8.9 µg/mL | MICD (Mtb-lux) [2]: 1.7 µg/mL | R/D (MICR/MICD, Mtb-lux) [2]: 5.2 | Effect on TcdA toxin production [4]: decreased the amount of toxin in a similar concentration-dependent manner | MIC ([5]; Clostridioides difficile, NAP1, 48 h, read-out: MIC C. difficile, NAP1, modified broth microdilution, 48 h, anaerobic): 2 to 4 µg/mL (≈ 4.5 to 9 µM) | MIC C. difficile [5]: 4.0 µg/mL (≈ 9 µM) | MIC [8]: 22.2 µg/mL (≈ 49.9 µM) | MIC [9]: 2.7 µg/mL (≈ 6.07 µM) | IC50 (Cytotoxicity assay HepG2): ~107 µM | SI (SID) HepG2 [10]: 62.9 | SI (SIR) HepG2 [10]: 12.0 | IC50 [11]: 59.1 µM | SI (SID) J774 [12]: 34.8 | SI (SIR) J774 [12]: 6.6

CO[C@@H]1c2cc(O)c(O)cc2O[C@@]2(C)CCC3C(C)(C)CCC[C@]3(C)[C@@H]12 (stereo partly drawn) [Compound 3, 15-α-methoxypuupehenol]
MIC in multistress dormancy model of Mtb (dormant Mtb): 0.5 µg/mL | MIC against active Mtb (active Mtb): 11.3 µg/mL (≈ 31.3 µM)
